These results are taken from patent publication US8546381B2, “Bridged heterocyclic compounds and methods of use” (Medivation Technologies, Inc., priority 2008, dated 2013).

A word on the inhibition: it is the change of the read-out against control, counted positive when it falls.

In assay [1] the target is T1, human recombinant adrenergic α2B receptor (Homo sapiens, UniProt P18089).
T1 construct: expressed in transfected cells; host or cells: CHO-K1 cells
T1 sequence (P18089 1-450): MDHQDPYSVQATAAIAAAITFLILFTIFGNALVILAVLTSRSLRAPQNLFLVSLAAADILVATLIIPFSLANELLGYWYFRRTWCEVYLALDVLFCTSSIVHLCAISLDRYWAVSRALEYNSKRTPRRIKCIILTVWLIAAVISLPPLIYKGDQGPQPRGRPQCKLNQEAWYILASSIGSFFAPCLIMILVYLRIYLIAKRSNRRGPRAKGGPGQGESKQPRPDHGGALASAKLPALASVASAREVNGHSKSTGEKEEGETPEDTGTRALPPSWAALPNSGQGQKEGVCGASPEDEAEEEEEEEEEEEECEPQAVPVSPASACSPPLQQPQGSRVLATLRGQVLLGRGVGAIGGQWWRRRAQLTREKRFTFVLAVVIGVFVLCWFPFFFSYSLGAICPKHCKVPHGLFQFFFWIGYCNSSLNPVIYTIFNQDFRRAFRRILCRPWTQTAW
The experiment in a line: Adrenergic α2B radioligand binding ([3H]Rauwolscine). The following applies: for inhibition at 1 µM: read-out: Adrenergic α2B, inhibition of ligand binding (1 μM). The procedure: To evaluate in radioligand binding assays the activity of compounds of the invention, human recombinant adrenergic α2B receptor expressed in Chinese hamster ovary (CHO-K1) cells (Uhlen S et al. Eur J. Pharmacol. 343(1):93, 1998) in a modified Tris-HCl buffer (50 mM Tris-HCl, pH 7.4, 12.5 mM MgCl2, 1 mM EDTA, 0.2% BSA) was used. Compounds of the invention were incubated with 2.5 nM [^3H]Rauwolscine for 60 minutes at 25° C. Non-specific binding was estimated in the presence of 10 μM Prozosin. Receptor proteins were filtered and washed, the filters were then counted to determine [^3H]Rauwolscine specifically bound. Compounds were screened at 1 μM or lower, using 1% DMSO as vehicle. Biochemical assay results are presented as the percent inhibition of specific binding in Table 3.

In assay [2] the target is T2, human recombinant adrenergic α1D receptor (Homo sapiens, UniProt P25100).
T2 construct: expressed in transfected cells; host or cells: HEK-293 cells
T2 sequence (P25100 1-572): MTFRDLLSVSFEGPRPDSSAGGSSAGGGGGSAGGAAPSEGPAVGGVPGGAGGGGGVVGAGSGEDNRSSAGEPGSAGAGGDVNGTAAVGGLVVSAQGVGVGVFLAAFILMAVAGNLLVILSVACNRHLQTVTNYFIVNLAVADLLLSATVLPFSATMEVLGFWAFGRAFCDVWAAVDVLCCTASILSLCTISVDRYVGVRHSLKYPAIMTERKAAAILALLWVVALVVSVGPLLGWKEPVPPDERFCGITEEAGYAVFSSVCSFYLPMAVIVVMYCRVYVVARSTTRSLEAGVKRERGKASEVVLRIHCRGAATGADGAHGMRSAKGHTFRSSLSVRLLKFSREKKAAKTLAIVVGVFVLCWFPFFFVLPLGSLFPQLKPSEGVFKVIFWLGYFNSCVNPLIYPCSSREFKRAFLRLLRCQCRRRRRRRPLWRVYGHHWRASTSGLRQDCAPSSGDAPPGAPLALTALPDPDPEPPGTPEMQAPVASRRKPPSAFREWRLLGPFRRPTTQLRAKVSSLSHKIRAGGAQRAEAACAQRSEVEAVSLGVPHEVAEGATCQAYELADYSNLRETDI
The experiment in a line: Adrenergic α1D radioligand binding ([3H]Prozosin). To be noted: for inhibition at 1 µM: read-out: Adrenergic α1D, inhibition of ligand binding (1 μM). The procedure: To evaluate in radioligand binding assays the activity of compounds of the invention, human recombinant adrenergic α1D receptor expressed in human embryonic kidney (HEK-293) cells (Kenny, B. A. et al. Br. J. Pharmacol. 115(6):981, 1995) in a 50 mM Tris-HCl buffer, pH 7.4, was used. Compounds of invention were incubated with 0.6 nM [^3H]Prozosin for 60 minutes at 25° C. Non-specific binding was estimated in the presence of 10 μM phentolamine. Receptor proteins were filtered and washed, the filters were then counted to determine [^3H]Prozosin specifically bound. Compounds were screened at 1 μM or lower, using 1% DMSO as vehicle. Biochemical assay results are presented as the percent inhibition of specific binding in Table 3.

For assay [3], the target named is T3, human recombinant serotonin (5-Hydroxytryptamine) 5-HT6 receptor (Homo sapiens, UniProt P50406).
T3 construct: expressed in transfected cells; host or cells: human HeLa cells
The experiment in a line: Serotonin 5-HT6 radioligand binding ([3H]LSD). To be noted: for inhibition at 1 µM: read-out: Serotonin 5-HT6, inhibition of ligand binding (1 μM). The procedure: To evaluate in radioligand binding assays the activity of compounds of the invention, human recombinant serotonin (5-Hydroxytryptamine) 5-HT6 receptor expressed in human HeLa cells (Monsma, F. J. Jr. et al., Mol. Pharmacol. 43:320, 1993) in a modified Tris-HCl buffer (50 mM Tris-HCl, pH 7.4, 150 mM NaCl, 2 mM Ascorbic Acid, 0.001% BSA) was used. Compounds of the invention were incubated with 1.5 nM [3H]Lysergic acid diethylamide (LSD) for 120 minutes at 37° C. Non-specific binding was estimated in the presence of 5 μM Serotonin (5-HT). Receptor proteins were filtered and washed, the filters were then counted to determine [3H]LSD specifically bound. Compounds were screened at 1 μM or lower, using 1% DMSO as vehicle. Biochemical assay results are presented as the percent inhibition of specific binding in Table 4.

Assay [4] has as its target T4, human recombinant dopamine D2L receptor (Homo sapiens, UniProt P14416).
T4 construct: expressed in transfected cells; host or cells: CHO cells
Nature of the assay: Dopamine D2L radioligand binding ([3H]Spiperone). To be noted: read-out: Dopamine (1 μM) D2L, inhibition of ligand binding. The procedure: To evaluate in radioligand binding assays the activity of compounds of the invention, human recombinant dopamine D2L receptor expressed in Chinese hamster ovary (CHO) cells (Grandy, D. K. et al. Proc. Natl. Acad. Sci. USA. 86:9762, 1989; Hayes, G. et al., Mol. Endocrinol. 6:920, 1992) in a modified Tris-HCl buffer (50 mM Tris-HCl, pH 7.4, 1.4 mM Ascorbic Acid, 0.001% BSA, 150 mM NaCl) was used. Compounds of the invention were incubated with 0.16 nM [^3H]Spiperone for 120 minutes at 25° C. Non-specific binding was estimated in the presence of 10 μM Haloperidol. Receptor proteins were filtered and washed, the filters were then counted to determine [^3H]Spiperone specifically bound. Compounds were screened at 1 μM or lower, using 1% DMSO as vehicle. Biochemical assay results are presented as the percent inhibition of specific binding in Table 3.

T4 sequence (P14416 whole entry): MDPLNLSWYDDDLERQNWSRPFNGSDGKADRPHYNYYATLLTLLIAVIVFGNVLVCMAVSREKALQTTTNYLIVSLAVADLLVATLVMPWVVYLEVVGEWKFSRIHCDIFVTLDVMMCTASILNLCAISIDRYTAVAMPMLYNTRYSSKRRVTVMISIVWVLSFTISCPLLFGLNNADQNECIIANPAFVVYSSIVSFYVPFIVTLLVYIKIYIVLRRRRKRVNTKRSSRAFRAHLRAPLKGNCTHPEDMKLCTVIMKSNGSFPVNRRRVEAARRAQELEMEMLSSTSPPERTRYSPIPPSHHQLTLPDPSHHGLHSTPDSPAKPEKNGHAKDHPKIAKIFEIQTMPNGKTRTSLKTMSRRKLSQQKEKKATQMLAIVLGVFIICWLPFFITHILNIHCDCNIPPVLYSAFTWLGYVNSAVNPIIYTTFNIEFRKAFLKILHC
T3 sequence (P50406 whole entry): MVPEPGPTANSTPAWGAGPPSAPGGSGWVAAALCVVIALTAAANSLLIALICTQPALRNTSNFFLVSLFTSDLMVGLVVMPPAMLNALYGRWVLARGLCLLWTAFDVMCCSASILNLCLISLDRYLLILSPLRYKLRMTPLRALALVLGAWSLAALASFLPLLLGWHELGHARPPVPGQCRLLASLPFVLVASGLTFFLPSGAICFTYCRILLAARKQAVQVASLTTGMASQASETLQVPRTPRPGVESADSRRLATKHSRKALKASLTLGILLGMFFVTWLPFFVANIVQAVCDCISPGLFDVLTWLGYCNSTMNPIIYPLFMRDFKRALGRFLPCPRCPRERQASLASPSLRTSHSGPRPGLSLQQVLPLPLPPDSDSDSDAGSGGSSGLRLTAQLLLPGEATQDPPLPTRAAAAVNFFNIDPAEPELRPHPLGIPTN

With `Cc1ccc2c(c1)c1c(n2CCc2ccccc2)CC2CCC1N2C` (centres unmarked) [Compound 2], the inhibition at 0.01 µM in assay [1] (10.0 nM, read-out: Adrenergic α2B, inhibition of ligand binding (10.0 nM)) is 85%. Besides, the inhibition at 0.1 µM in assay [1] (0.1 μM, read-out: Adrenergic α2B, inhibition of ligand binding (0.1 μM)) stood at 108%. The inhibition at 1 µM in assay [1] (1 μM) was 98%; in assay [2] (1 μM), 94%; in assay [3], 82%. Besides, the inhibition at 0.03 µM in assay [2] (0.03 μM, read-out: Adrenergic α1D, inhibition of ligand binding (0.03 μM)) stood at 44%. In assay [2] (0.3 μM, read-out: Adrenergic α1D, inhibition of ligand binding (0.3 μM)), the inhibition at 0.3 µM came to 85%.

Consider `CN1C2CCC1c1c(n(CCC(=O)N3CCNC(=O)C3)c3ccc(Cl)cc13)C2` (centres unmarked) [Compound 3], for which the inhibition at 1 µM in assay [1] (1 μM) is -17%; in assay [2] (1 μM), 6%; in assay [3] it was 3%; in assay [4], -3%.

Consider `CN1C2CCC1c1c(n(CCC(=O)N3CCCC3)c3ccc(Cl)cc13)C2` (centres unmarked) [Compound 5], for which the inhibition at 1 µM worked out at 30% in assay [1] (1 μM), 21% in assay [2] (1 μM), 7% in assay [3] and 10% in assay [4].

Consider `CC(=O)N1CCN(C(=O)CCn2c3c(c4cc(Cl)ccc42)C2CCC(C3)N2C)CC1` (centres unmarked) [Compound 8], for which the inhibition at 1 µM was -9% in assay [1] (1 μM), 8% in assay [2] (1 μM), -1% in assay [3] and 1% in assay [4].

Regarding `CN1C2CCC1c1c(n(CCC(=O)N3CCNCC3)c3ccc(Cl)cc13)C2` (centres unmarked) [Compound 9], the inhibition at 1 µM in assay [1] (1 μM) is -15%; in assay [2] (1 μM) it was 9%; in assay [3] it was 2%; in assay [4], 7%.

Take `CN1C2CCC1c1c(n(CCC(=O)N3CC[S+]([O-])CC3)c3ccc(Cl)cc13)C2` (centres unmarked) [Compound 10]: the inhibition at 1 µM is 7% in assay [1] (1 μM), 7% in assay [2] (1 μM), -13% in assay [3] and -2% in assay [4].

As for `CN1C2CCC1c1c(n(CCC(=O)N3CCS(=O)(=O)CC3)c3ccc(Cl)cc13)C2` (centres unmarked) [Compound 11], the inhibition at 1 µM was 1% in assay [1] (1 μM), -11% in assay [2] (1 μM), -16% in assay [3] and 2% in assay [4].

For the compound `CN1C2CCC1c1c(n(CCC(=O)N3CCSCC3)c3ccc(Cl)cc13)C2` (centres unmarked) [Compound 12], the inhibition at 1 µM is 10% in assay [1] (1 μM), 3% in assay [2] (1 μM), -1% in assay [3] and -4% in assay [4].

`CN1C2CCC1c1c(n(CCC(=O)N3CCOCC3)c3ccc(Cl)cc13)C2` (centres unmarked) [Compound 13]: the inhibition at 1 µM in assay [1] (1 μM) came out at 7%; in assay [2] (1 μM), 8%; in assay [3] it was 10%; in assay [4], 13%.

With `Cc1ccc2c(c1)c1c(n2CCc2ccc(C)nc2)CC2CCC1N2C` (centres unmarked) [Compound 32], the inhibition at 1 µM is 82% in assay [1] (1 μM), 53% in assay [2] (1 μM), 13% in assay [3] and 10% in assay [4].

Take `CN1C2CCC1c1c(n(CCc3ccc(Cl)cc3)c3ccc(F)cc13)C2` (centres unmarked) [Compound 33]: the inhibition at 1 µM worked out at 100% in assay [1] (1 μM), 36% in assay [2] (1 μM), 14% in assay [3] and 17% in assay [4].

In the case of `CN1C2CCC1c1c(n(CCc3ccc(C(F)(F)F)nc3)c3ccc(Cl)cc13)C2` (centres unmarked) [Compound 34], the “Adrenergic α2B, inhibition of ligand binding (1 μM)” value in assay [1] (1 μM) was 100.0%. For the same compound, the inhibition at 1 µM was 103% in assay [1] (1 μM), 61% in assay [2] (1 μM), 20% in assay [3] and -0.875% in assay [4]. Also, the “Adrenergic α1D, inhibition of ligand binding (1 μM)” value in assay [2] (1 μM) was 56.0%. In assay [3] (1 µM), the “Serotonin 5-HT6, inhibition of ligand binding (1 μM)” value amounted to 28.0%.

As to `CN1C2CCC1c1c(n(CCc3ccc(F)cc3)c3ccc(F)cc13)C2` (centres unmarked) [Compound 35], the inhibition at 1 µM turned out to be 110% in assay [1] (1 μM), 78% in assay [2] (1 μM), 70% in assay [3] and 67% in assay [4].

Consider `CN1C2CCC1c1c(n(CCCc3ccc(C(F)(F)F)nc3)c3ccc(Cl)cc13)C2` (centres unmarked) [Compound 37], for which the inhibition at 1 µM was 51% in assay [1] (1 μM), 12% in assay [2] (1 μM), 22% in assay [3] and 2% in assay [4].

Consider `Cc1ccc(CCCn2c3c(c4cc(Cl)ccc42)C2CCC(C3)N2C)cn1` (centres unmarked) [Compound 38], for which the inhibition at 1 µM is 76% in assay [1] (1 μM), 50% in assay [2] (1 μM), 17% in assay [3] and -5% in assay [4].

For `CN1C2CCC1c1c(n(CCCc3ccc(Cl)cc3)c3ccc(Cl)cc13)C2` (centres unmarked) [Compound 39], the inhibition at 1 µM in assay [1] (1 μM) is 54%; in assay [2] (1 μM), 11%; in assay [3], 24%; in assay [4] it was 2%.

For `Cc1ccc(C(O)Cn2c3c(c4cc(Cl)ccc42)C2CCC(C3)N2C)cn1` (centres unmarked) [Compound 52], the inhibition at 1 µM in assay [1] (1 μM) was found to be 85%; in assay [2] (1 μM), 33%; in assay [3] it was 16%; in assay [4], 10%.

Turning to `Cc1ccc2c(c1)c1c(n2CCc2ccccc2)CC2CCCC1N2C` (centres unmarked) [Compound 56], the inhibition at 1 µM came out at 100% in assay [1] (1 μM), 65% in assay [2] (1 μM) and 30% in assay [3].

With `CN1C2CCC1c1c(n(CCc3ccc(F)cc3)c3ccc(Cl)cc13)C2` (centres unmarked) [Compound 57], the inhibition at 1 µM in assay [1] (1 μM) amounted to 98%; in assay [2] (1 μM) it was 69%; in assay [3], 46%.

For the compound `CN1C2CCC1c1c(n(CCc3ccc(Cl)cc3)c3ccc(Cl)cc13)C2` (centres unmarked) [Compound 58], the figures for the inhibition at 1 µM in assay [1] (1 μM), in assay [2] (1 μM) and in assay [3] were 99%, 74% and 25%, respectively.
